Data on five molecules can be found in patent US20240199547A1, “OPTICAL ABSORBENT COMPOSITION” (LMS CO., LTD., priority 2022, published 2024).

The nature of this data set: Solubility of each synthesized chemical compound in solvents at room temperature. To be noted: room temperature (about 25° C.); for Solubility in MEK: methyl ethyl ketone (MEK); for Solubility in MIBK: methyl isobutyl ketone (MIBK). Format: physicochemical. The method, then:
The solubility of each synthesized chemical compound was evaluated. Solubility was determined according to the following criteria by evaluating the solubility of each chemical compound in a plurality of solvents (cyclohexanone, toluene, methyl isobutyl ketone (MIBK) or methyl ethyl ketone (MEK)) at room temperature (about 25° C.).
A: When the solubility is 1% by mass or more.
B: When the solubility is 0.5% by mass or more and less than 1% by mass.
C: When the solubility is 0.2% by mass or more and less than 0.5% by mass.
D: When the solubility is less than 0.2% by mass.
The solubility evaluation results were summarized and described in Table 1.

Turning to `CCCCC(CC)C(=O)Nc1cc2c(cc1C1=C([O-])/C(=c3\cc4c(cc3NC(=O)C(CC)CCCC)=[N+](CCCC)C(C)C4(C)C)C1=O)C(C)(C)C(C)N2CCCC` (centres unmarked) [Synthesis Example 2], the “Solubility in Cyclohexanone” value is given as “A (When the solubility is 1% by mass or more.)”, the “Solubility in MEK” value is reported as “A (When the solubility is 1% by mass or more.)”, the “Solubility in MIBK” value was “A (When the solubility is 1% by mass or more.)” and the “Solubility in Toluene” value is reported as “A (When the solubility is 1% by mass or more.)”.

As to `CCCCCCCCN1c2cc(NC(=O)C(F)(F)F)c(C3=C([O-])/C(=c4\cc5c(cc4NC(=O)C(F)(F)F)=[N+](CCCCCCCC)C(CC)C5(C)C)C3=O)cc2C(C)(C)C1CC` (centres unmarked) [Synthesis Example 3], the “Solubility in Cyclohexanone” value was “A (When the solubility is 1% by mass or more.)”, the “Solubility in MEK” value was “A (When the solubility is 1% by mass or more.)”, the “Solubility in MIBK” value is on record as “A (When the solubility is 1% by mass or more.)” and the “Solubility in Toluene” value is given as “A (When the solubility is 1% by mass or more.)”.

As to `CCCC(=O)Nc1cc2c(cc1C1=C([O-])/C(=c3\cc4c(cc3NC(=O)CCC)=[N+](CCOC)C(C)C4(C)C)C1=O)C(C)(C)C(C)N2CCOC` (centres unmarked) [Synthesis Example 4], the “Solubility in Cyclohexanone” value was “A (When the solubility is 1% by mass or more.)”, the “Solubility in MEK” value is “A (When the solubility is 1% by mass or more.)”, the “Solubility in MIBK” value is “A (When the solubility is 1% by mass or more.)” and the “Solubility in Toluene” value is listed as “A (When the solubility is 1% by mass or more.)”.

For `CCCCCCN1c2cc(NC(=O)OCC)c(C3=C([O-])/C(=c4\cc5c(cc4NC(=O)OCC)=[N+](CCCCCC)C(C)C5(C)C)C3=O)cc2C(C)(C)C1C` (centres unmarked) [Synthesis Example 5], the “Solubility in Cyclohexanone” value is listed as “A (When the solubility is 1% by mass or more.)”, the “Solubility in MEK” value was “A (When the solubility is 1% by mass or more.)”, the “Solubility in MIBK” value is listed as “A (When the solubility is 1% by mass or more.)” and the “Solubility in Toluene” value was “A (When the solubility is 1% by mass or more.)”.

For `CC(=O)Nc1cc2c(cc1C1=C([O-])/C(=c3\cc4c(cc3NC(C)=O)=[N+](C)C(C)C4(C)C)C1=O)C(C)(C)C(C)N2C` (centres unmarked) [Synthesis Example 6], the “Solubility in Cyclohexanone” value was “B (When the solubility is 0.5% by mass or more and less than 1% by mass.)”; the “Solubility in MEK” value was “B (When the solubility is 0.5% by mass or more and less than 1% by mass.)”; the “Solubility in MIBK” value was “B (When the solubility is 0.5% by mass or more and less than 1% by mass.)”; the “Solubility in Toluene” value was “B (When the solubility is 0.5% by mass or more and less than 1% by mass.)”.
